Source: patent publication US9505735B2, “Compounds for treating infectious diseases” (Whitehead Institute for Biomedical Research, priority 2012, dated 2016)

Assays:
[1] = system: S. cerevisiae strain Sigma 1278B; test: Filamentation on solid media; assay type: cell-based; settings: 5 μM, 6 days
Method: For liquid assays, C. albicans strains were grown overnight in YPD with DMSO or 5 μM gepinacin. After dilution to an OD600 of 0.1 in Spider media, growth was continued for an additional 3 hours with agitation at 37° C. in the presence of compound before transfer to a 24 well plate for imaging (Shen, et al. (2008) Proc Natl Acad Sci USA 105, 20918-20923). Assays with S. cerevisiae strain Sigma 1278B on solid media were performed as previously described (Liu, et al. (1994) Science 266, 1723-1726) except gepinacin was added directly to partially cooled plate media and colonies were imaged after growth for 6 or 9 days at 30° C.

[2] = system: RAW264.7 macrophages co-cultured with treated C. albicans; test: Macrophage stimulation and TNFα measurement (ELISA); assay type: cell-based, mouse; settings: 2 hours co-culture
Method: Cultures of C. albicans Sc5314 cells were drug treated as described for β-glucan staining. After overnight incubation, cultures were washed extensively, counted, and added to cultures of the mouse macrophage cell line RAW264.7 at a macrophage:yeast ratio of 1:2.5 in the continued presence of drug. After 2 hours supernatants were harvested and TNFα concentration measured by ELISA using a kit according to manufacturer's instructions (DY410, R&D Systems).

NIH 3T3 cells = test: Co-culture of mammalian cells and C. albicans: mammalian cells; assay type: cell-based; settings: 40 μM, 24 hours
Method: (§1) For co-culture experiments, confluent layers of NIH 3T3 cells were established in 6-well plates. The following day, the medium was replaced with RPMI1640+10% FBS containing the amphotericin-resistant strain CaAmphR at […] colony forming units per ml and 40 μM gepinacin or an equivalent amount of DMSO. Co-cultures were incubated for 24 hours at 37° C. in a micro-isolator box. Images were acquired on a Nikon Eclipse TS100 microscope at 40×.
(§2) Having determined the target of gepinacin in fungi, gepinacin's effect on the human ortholog of Gwt1, PIG-W, was examined. To determine if gepinacin remained active under mammalian cell culture conditions cultured fungi were cultured (either an amphotericin B-resistant (FIG. 3a) or fluconazole-resistant (data not shown) isolate of C. albicans) and mammalian cells together with 40 μM gepinacin. […] PIG-W (and GPI anchor biosynthesis) is not essential for mammalian cells in culture.

PIG-W = molecular target: T1, PIG-W (Homo sapiens, UniProt Q7Z7B1); test: In vitro acylation assay with membranes of the PIG-W strain; assay type: biochemical; settings: membranes of low copy plasmid strain
T1 construct: expressed in transfected cells; host or cells: S. cerevisiae BY4741-derived gwt1 deletion shuttle strain carrying a pAG415GPD-based PIG-W plasmid
T1 sequence (Q7Z7B1 1-504): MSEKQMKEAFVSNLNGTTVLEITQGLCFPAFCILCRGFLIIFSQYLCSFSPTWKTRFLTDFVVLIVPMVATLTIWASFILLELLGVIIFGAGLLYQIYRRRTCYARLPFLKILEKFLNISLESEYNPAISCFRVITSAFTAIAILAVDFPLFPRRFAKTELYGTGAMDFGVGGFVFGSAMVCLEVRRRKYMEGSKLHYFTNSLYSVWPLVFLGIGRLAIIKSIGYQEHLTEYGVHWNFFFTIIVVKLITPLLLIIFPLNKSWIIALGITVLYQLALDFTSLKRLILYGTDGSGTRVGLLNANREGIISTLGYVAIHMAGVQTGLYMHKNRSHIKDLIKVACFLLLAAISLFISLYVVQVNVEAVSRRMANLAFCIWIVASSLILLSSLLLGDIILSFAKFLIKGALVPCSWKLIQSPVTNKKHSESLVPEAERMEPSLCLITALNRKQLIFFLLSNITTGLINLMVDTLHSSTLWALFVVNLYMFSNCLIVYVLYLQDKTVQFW
Method: Photographs were taken after 24 hours. DMSO-treated cultures have large, dense colonies of C. albicans which are not present in gepinacin-treated cultures. (B) Anti-fungal susceptibility testing of S. cerevisiae strains in which the endogenous GWT1 gene had been replaced by plasmid-driven expression of the human gene (PIG-W), or the fungal gene (GWT1). CEN plasmids are low copy, […] plasmids are high copy.
Experiments were performed using a previously published protocol (Umemara, et al. (2003) J Biol Chem 278, 23639-23647) with the following modifications; UDP[^3H]GlcNAc was used instead of [^14C] and TLC plates were imaged by autoradiography. Lipid extracts were treated overnight with phosphatidylinositol-specific phospholipase C to confirm that the band identified as GlcN-(acyl)PI was resistant to cleavage (data not shown).

[3] = system: amphotericin B-resistant or fluconazole-resistant C. albicans; test: Co-culture of mammalian cells and C. albicans: fungal proliferation; assay type: cell-based; settings: 40 μM, 24 hours, serum-containing medium
Method: as §1, §2

Gas1 and CPY maturation = test: Protein trafficking analysis (immunoblot of reporter proteins); assay type: cell-based, S. cerevisiae; settings: 10 μM, 1 hour
Method: (A) Immunoblots of lysates prepared from S. cerevisiae treated with gepinacin showing GPI-anchor-selective impairment of protein maturation. The unprocessed (u), precursor (p), and mature (m) forms of the reporter proteins are indicated. The identity of the tagged reporter proteins (top of panel) and the antibodies used for their detection (bottom of panel) are also indicated. Treatment conditions are DMSO (0.05%), gepinacin (GPN, 10 μM) or tunicamycin (Tun, 10 μM). The same lysate was used for both blots. […] GFP expression was monitored by flow cytometry. (C) Anti-fungal susceptibility testing of strains deleted for IRE1 (activator of the UPR) or HAC1 (effector of the UPR) showing their increased sensitivity to gepinacin.
HA-tagged GAS1 was expressed in strain BY4741 CPY-GFP (Yeast GFP collection (Huh, et al. (2003) Nature 425, 686-691) under control of its own promoter using plasmid pCM-HA-GAS1. This construct was created as previously reported except in a gateway plasmid backbone (Fujita, et al. (2006) Mol Biol Cell 17, 834-850). To assess effects on trafficking, strains were incubated for 1 hour at 30° C. with test compounds. Total cellular protein (5 μg) was separated by electrophoresis (Invitrogen 8% gels) and transferred to nitrocellulose membranes. Blots were hybridized with antibodies against HA (Covance), GFP (Roche), or CPY (Invitrogen). Sizes for the various post-translationally modified products of Gas1HA2 and CPY have been previously reported (Fujita, et al. (2006) Mol Biol Cell 17, 834-850). CPY-GFP was used to facilitate discrimination of CPY processing steps because GFP is cleaved from CPY in the yeast vacuole. The experiment, however, was also performed with untagged CPY with the same results.

SMILES: COc1ccc(NC(=O)COc2cccc(OCC(C)C)c2)cc1 [gepinacin]
- filamentation on solid media [1]: blocked filamentation
- TNFα secretion by macrophages [2]: more than doubled
- effect on mammalian cells in co-culture (NIH 3T3 cells): no effect
- activity of the human enzyme (GlcN-(acyl)PI formation) (PIG-W): not inhibited
- fungal proliferation in co-culture [3]: profound inhibition of proliferation
- CPY (not GPI-anchored) processing (Gas1 and CPY maturation): identical
- Gas1 (GPI-anchored) maturation: mature versus precursor form (Gas1 and CPY maturation): inverted
